# Assay results: the supplement of paper PMC10307832
# Experiments:
# Assay in all cases: relative viability (nuclei count vs DMSO), 5 days (fraction); higher = more cells survive
# [1] = tested on: NCI-H1755; conditions: first compound 0.2 µM
# Summary of the method: (§1)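 Lung cancer cell lines in 1536-well plates got either a single drug or a fixed anchor-drug dose together with five library-drug doses (not always all listed) in √10 steps, by pin tool, on the day after seeding. Nuclei were counted after 5 days, and relative viability is the treated-to-vehicle ratio of nuclei counts. Values are medians of duplicate plates.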
# [2] = tested on: NCI-H2170
# Summary of the method: as §1
# [3] = tested on: NCI-H1792
# Summary of the method: as §1
# [4] = tested on: LU99A
# Summary of the method: as §1
# [5] = tested on: COR-L23
# Summary of the method: as §1
# [6] = tested on: BEN
# Summary of the method: as §1
# [7] = tested on: NCI-H460
# Summary of the method: as §1
# [8] = tested on: CAL-12T
# Summary of the method: as §1
# [9] = tested on: NCI-H1651
# Summary of the method: as §1
# [10] = tested on: HCC-44
# Summary of the method: as §1
# [11] = tested on: NCI-H1437
# Summary of the method: as §1
# [12] = tested on: NCI-H1650
# Summary of the method: as §1
structure (smiles),measurement,setting,value
CCNC(=O)c1noc(-c2cc(C(C)C)c(O)cc2O)c1-c1ccc(CN2CCOCC2)cc1 [Luminespib] + Nc1nc2[nH]cc(CCc3ccc(C(=O)N[C@@H](CCC(=O)O)C(=O)O)cc3)c2c(=O)[nH]1 [Pemetrexed] (partner 0.2 µM),relative viability,[1],0.2
same,relative viability,[2]; first compound 0.002 µM,0.291
same,relative viability,[2]; first compound 0.006325 µM,0.267
same,relative viability,[2]; first compound 0.06325 µM,0.219
same,relative viability,[2]; first compound 0.2 µM,0.141
same,relative viability,[3]; first compound 0.002 µM,0.816
same,relative viability,[3]; first compound 0.006325 µM,0.615
same,relative viability,[3]; first compound 0.02 µM,0.117
same,relative viability,[3]; first compound 0.06325 µM,0.0474
same,relative viability,[3]; first compound 0.2 µM,0.0496
same,relative viability,[4]; first compound 0.002 µM,0.192
same,relative viability,[4]; first compound 0.006325 µM,0.198
same,relative viability,[4]; first compound 0.02 µM,0.177
same,relative viability,[4]; first compound 0.06325 µM,0.168
same,relative viability,[4]; first compound 0.2 µM,0.127
same,relative viability,[5]; first compound 0.002 µM,0.19
same,relative viability,[5]; first compound 0.006325 µM,0.187
same,relative viability,[5]; first compound 0.02 µM,0.215
same,relative viability,[5]; first compound 0.06325 µM,0.196
same,relative viability,[5]; first compound 0.2 µM,0.101
same,relative viability,[6]; first compound 0.002 µM,0.805
same,relative viability,[6]; first compound 0.006325 µM,0.584
same,relative viability,[6]; first compound 0.02 µM,0.463
same,relative viability,[6]; first compound 0.06325 µM,0.5
same,relative viability,[6]; first compound 0.2 µM,0.252
same,relative viability,[7]; first compound 0.002 µM,0.0608
same,relative viability,[7]; first compound 0.006325 µM,0.0558
same,relative viability,[7]; first compound 0.02 µM,0.0687
same,relative viability,[7]; first compound 0.06325 µM,0.0359
same,relative viability,[7]; first compound 0.2 µM,0.0287
same,relative viability,[8]; first compound 0.002 µM,1.23
same,relative viability,[8]; first compound 0.006325 µM,0.988
same,relative viability,[8]; first compound 0.02 µM,0.906
same,relative viability,[8]; first compound 0.06325 µM,0.146
same,relative viability,[8]; first compound 0.2 µM,0.124
same,relative viability,[9]; first compound 0.002 µM,0.555
same,relative viability,[9]; first compound 0.006325 µM,0.536
same,relative viability,[9]; first compound 0.02 µM,0.474
same,relative viability,[9]; first compound 0.06325 µM,0.646
same,relative viability,[9]; first compound 0.2 µM,0.443
same,relative viability,[10]; first compound 0.002 µM,0.613
same,relative viability,[10]; first compound 0.006325 µM,0.611
same,relative viability,[10]; first compound 0.02 µM,0.773
same,relative viability,[10]; first compound 0.06325 µM,0.659
same,relative viability,[10]; first compound 0.2 µM,0.657
same,relative viability,[11]; first compound 0.002 µM,0.305
same,relative viability,[11]; first compound 0.006325 µM,0.305
same,relative viability,[11]; first compound 0.02 µM,0.347
same,relative viability,[11]; first compound 0.06325 µM,0.266
same,relative viability,[11]; first compound 0.2 µM,0.156
same,relative viability,[12]; first compound 0.002 µM,0.404
same,relative viability,[12]; first compound 0.006325 µM,0.368
same,relative viability,[12]; first compound 0.02 µM,0.426
same,relative viability,[12]; first compound 0.06325 µM,0.152
same,relative viability,[12]; first compound 0.2 µM,0.137
